{"source": "patent US20230226041A1", "about": "“COMPOUNDS FOR THE TREATMENT OF VIRAL INFECTIONS” (Merck Patent GmbH, priority 2020, published 2023)", "tested_on": "SARS-CoV2/ZG/297-20", "assay_type": "cell-based", "details": "Calu-3 cells infected with SARS-CoV-2, MOI 0.05, observed for 120 hours, level about equal to uninfected cells", "note": "Read-outs that look alike come from different tables or passages of the source."}
{"molecule": "COc1cc2ncc3c(c2cc1-c1cn(C)nc1C)n(-c1c(F)cncc1OC)c(=O)n3C", "note": "(atropisomer, axis not shown; (Sa)) [NCE4, 8-(1,3-dimethyl-1H-pyrazol-4-yl)-1-(Sa)-(3-fluoro-5-methoxy-pyridin-4-yl)-7-methoxy-3-methyl-1,3-dihydro-imidazo[4,5-c]quinolin-2-one]", "values": [{"measurement": "confluence of Calu-3 cells as compared to the infected cells", "setting": "concentrations between 4 and 27 μM, FIG. 1", "result": "significant retainment or improvement of the confluence of the cells"}]}
{"molecule": "COc1cc2ncc3c(c2cc1-c1cnn(C)c1)n(-c1ccc(C#N)cc1F)c(=O)n3C", "note": "[NCE16, 3-fluoro-4-[7-methoxy-3-methyl-8-(1-methyl-1H-pyrazol-4-yl)-2-oxo-2,3-dihydro-imidazo[4,5-c]quinolin-1-yl]-benzonitrile]", "values": [{"measurement": "confluence of Calu-3 cells as compared to the infected cells", "setting": "concentrations between 16 and 81 μM, FIG. 2", "result": "significant retainment or improvement of the confluence of the cells"}]}
